Patent US5939385A, “Transglutaminase cross-linkable polypeptides and methods relating thereto” (ZymoGenetics, Inc., priority 1995, dated 1999)
No end group written: not given here.

Molecular target: T1, recombinant Factor XIII (rFXIIIa) (Homo sapiens, UniProt P00488)
T1 construct: made in house
T1 sequence (P00488 39-732 limits assumed): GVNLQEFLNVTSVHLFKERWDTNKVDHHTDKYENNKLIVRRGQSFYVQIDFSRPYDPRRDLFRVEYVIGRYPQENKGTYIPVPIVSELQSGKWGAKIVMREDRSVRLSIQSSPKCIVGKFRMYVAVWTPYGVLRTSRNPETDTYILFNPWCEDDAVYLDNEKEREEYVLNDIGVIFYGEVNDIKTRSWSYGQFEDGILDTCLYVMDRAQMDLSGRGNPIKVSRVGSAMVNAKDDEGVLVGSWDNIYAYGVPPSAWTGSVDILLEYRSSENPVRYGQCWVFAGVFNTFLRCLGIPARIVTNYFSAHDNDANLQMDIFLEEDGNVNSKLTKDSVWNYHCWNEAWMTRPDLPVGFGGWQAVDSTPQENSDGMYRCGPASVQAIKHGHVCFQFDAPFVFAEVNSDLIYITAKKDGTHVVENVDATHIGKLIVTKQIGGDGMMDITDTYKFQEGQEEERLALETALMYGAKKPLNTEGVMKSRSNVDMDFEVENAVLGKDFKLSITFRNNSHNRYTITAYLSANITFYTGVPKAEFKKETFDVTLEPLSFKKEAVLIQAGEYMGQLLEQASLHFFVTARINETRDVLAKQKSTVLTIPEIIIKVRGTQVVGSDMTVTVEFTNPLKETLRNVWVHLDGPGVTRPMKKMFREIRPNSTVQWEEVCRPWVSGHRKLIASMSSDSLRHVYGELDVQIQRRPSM
Experiment: Factor XIII cross-linking assay of test polypeptide substrates (HPLC area % vs time)
Format: biochemical
Experimental: Polypeptides are screened for the ability to form transglutaminase-catalyzed cross-links using a cross-linking assay as described in more detail below. […] Each reaction receives 50 mM CaCl2 to a final concentration of 2.5 mM. A negative control for each test substrate is also prepared in which the reaction lacks a transglutaminase (e.g., Factor XIII). A positive control of the fibrinogen polypeptide (The-Ile-Gly-Glu-Gly-Gln-Gln-His-His-Leu-[…]-Gln-Ala-Gly-Asp-Val) is used for each set of reactions. The reactions are initiated by the addition of 40 μg/ml of transglutaminase (e.g., recombinant Factor XIII) followed by 0.1 unit of bovine thrombin (Enzyme Research Laboratories, Inc., South Bend, Ind.) to each solution, except the negative controls. The reactions are incubated in a 37° C. water bath. A time course of 10 μl samples are taken from each reaction at 0 minutes, 30 minutes, 60 minutes, 120 minutes and overnight. The reactions are stopped by boiling for one minute. After the reactions are terminated, each sample is diluted to 50 μl with 40 μl of TBS buffer (120 mM NaCl, 50 mM Tris (pH 7.6)) and the samples are prepared for HPLC analysis.
Each sample is chromatographed on a C-18 reverse phase HPLC column (Vydac, Hesperia, Calif. or the like) using a gradient of 0-40% B in 30 minutes (Solvent A: 0.05% trifluoroacetic acid (TFA) in water and Solvent B: 0.045% TFA in 80% acetonitrile, 20% water) on a Hewlett Packard 1090 Series II HPLC or the like. The signal is detected at a wavelength of 215 nm. The area % of each reaction product is collected and plotted versus time to determine the rates of polypeptide utilization dimer formation and multimer formation. A deamidation ratio is determined by dividing the deamidation rate by the dimerization rate.
The ability of the test polypeptides to form Factor XIII-induced multimers, and the susceptibility of the polypeptides to deamidation were assessed using the method described in detail below.
Approximately 0.5 mg of lyophilized polypeptide was dissolved in 50 mM Tris, 125 mM NaCl (pH 7.6) to give a final concentration of 2 mM by weight. […] Each test polypeptide solution received 50 mM CaCl2 to a final concentration of 2.5 mM. For each reaction, a negative control lacking Factor XIII was included. A positive control of the fibrinogen polypeptide Thr-Ile-Gly-Glu-Gly-Gln-Gln-His-His-Leu-Gly-Gly-Ala-Lys-Gln-Ala-Gly-Asp-Val was used for each set of reactions. The reactions were initiated by the addition of 40 μg/ml of recombinant Factor XIII followed by 0.1 unit of bovine thrombin (Enzyme Research Laboratories, Inc.) to each solution, except the negative controls. The reactions were incubated in a 37° C. water bath. Samples of 10 μl were taken from each reaction at 0 minutes, 30 minutes, 60 minutes, 120 minutes and overnight. The reactions were stopped by boiling for one minutes. The samples were diluted to 50 μl TBS buffer (120 mM NaCl, 50 mM Tris (pH 7.6)), and the samples were prepared for HPLC analysis.
Each reaction was chromatographed on a C-18 reverse phase HPLC column (Vydac, Hesperia, Calif., or the like) using a gradient of 0-40% B in 30 minutes (solvent A: 0.05% TFA in water and Solvent B: 0.045% TFA in 80% acetonitrile/20% water) on a Hewlett Packard 1090 Series II HPLC. The signal was detected at a wavelength of 215 nm. The area % of each reaction product was collected and plotted versus time to determine the rates of polypeptide utilization and dimer formation. A deamidation ratio was determined by dividing the deamidation rate by the dimerization rate. […] The abbreviations used in Table 1 are as follows: d[S]/dt indicates the rate of substrate utilization, d[S2 ]/dt indicates the rate of dimer formation and (-NH2 /S2) indicates the relative rates of deamidation to dimerization. The initial rates were normalized to that of the fibrinogen polypeptide Thr-Ile-Gly-Glu-Gly-Gln-Gln-His-His-Leu-Gly-Gly-Ala-Lys-Gln-Ala-Gly-Asp-Val. […]

[1] = initial rate, 2mM substrate, 40 ug/ml rFXIIIa (preactivated), 2.0 U/ml Thrombin, 2.5 mM CaCl2, pH 7.4

Sequence: VPGVGGQHHLGGAKQVPGVG [VPGVGGQ-- HHLGGAKQVPGVG]
- Monomer Consumption d[S]/dt (rate of substrate utilization) (initial rate, 2mM substrate, 40 ug/ml rFXIIIa (preactivated), 2.0 U/ml Thrombin, 2.5 mM CaCl2, 125 mM NaCl, 50 mM TrisHCl, pH 7.4): -12.8 uM (monomer)/min
- Crosslinking d(2[S-])/dt (rate of monomer incorporation into dimers) [1]: 11.8 uM (monomer)/min
- Hydrolysis d[-NH3]/dt (hydrolysis = deamidation) [1]: 0.0 uM (monomer)/min
- Hydrolysis % (share of hydrolysis (deamidation) relative to hydrolysis plus crosslinking, same reaction conditions): 0%
